Results: US20220151993A1, “TREATMENT OF ANXIETY AND DEPRESSION” (NEW YORK UNIVERSITY, priority 2020, published 2022)

Legend:
[1] = tested on: patients with cancer-related psychiatric and existential distress; assay: Existential distress measures (hopelessness, demoralization, death anxiety) combined: effect sizes; type: in vivo, human
Protocol: (§1) The present example assesses the long-term effects of a single dose of psilocybin (0.3 mg/kg) in conjunction with psychotherapy in patients with cancer-related psychiatric and existential distress.
(§2) 29 participants were randomly assigned to one of two groups: psilocybin (0.3 mg/kg) on the first medication session followed by niacin (250 mg) on the second session (i.e. psilocybin-first group), or niacin (250 mg) on the first medication session followed by psilocybin (0.3 mg/kg) on the second session (i.e. niacin-first group). Psilocybin and niacin were administered in identically appearing gelatin capsules.
(§3) Participants received three 2-hour preparatory psychotherapy sessions in order to review the purpose and intention of participation in the study, treatment goals, and structure of the treatment sessions. Medications were administered in 8-hour treatment sessions which included a discussion of the participant's subjective experience with the treatment team to consolidate the memory of the experience and to begin the process of post-integrative psychotherapy. Participants also received three 2-hour post-medication integration sessions (repeated after the second dosing session) to further consolidate the memory of the experience and to continue the process of psychological integration. All psychotherapy treatment sessions were delivered by a dyadic therapy team trained in a blend of psychotherapies with an evidence base to support their use in cancer patients (drawing upon principles of palliative care therapy, existential psychotherapy, cognitive-behavioural therapy, psychoanalysis therapy, and transpersonal psychology) and were taught about the safety and clinical pharmacology of psilocybin. Each therapy dyad underwent six confidential one-to-one sessions to build their alliance and exchange ideas about psychedelic therapy. The trial employed a crossover design at seven weeks following the first drug administration, with an outcome assessment at 6.5 months (26 weeks) following the second drug administration (i.e. after the crossover).
(§4) Two long-term follow ups (LTFUs) were carried out to assess the continued effect of psilocybin. Of the original 29 participants, all 16 participants who were not deceased at the time of LTFU were contacted (the remaining 13 participants were deceased). Of the 16 participants who were contacted, 15 agreed to participate in the LTFU and completed measures through a secure online portal. One participant died (from cancer-related complications) after completing the first LTFU and prior to the second LTFU, leaving us with 14 participants at the second LTFU. The first and second LTFUs occurred on average 3.2 years (range 2.3-4.5 years) and 4.5 years (range 3.5-5.5 years) following the participants' psilocybin dosing date, respectively.
Cancer-related existential distress (demoralization, hopelessness, attitudes and effects associated with disease progression and death) was assessed using the following methods: • The Death Anxiety Scale (DAS) (Templer, 1970)—a 15-item measure that has been used most frequently to assess death anxiety. Items are scored “true” and “false” and then scored as one and zero, respectively. Total scores range between 0-15. Higher scores represent increased severity of death anxiety. Scores below eight are considered normative levels of death anxiety. Templer (1970) reported adequate test-retest reliability (r=0.83) and validity. • The Hopelessness Assessment in Illness (HAI) (Rosenfeld et al., 2011)—an eight-item instrument developed for use in patients with advanced cancer. Total scores range from 0-16. Higher scores indicate higher levels of hopelessness. Data have not been published regarding recommended clinical cut-off scores for this measure. […]

[2] = tested on: patients with cancer-related psychiatric and existential distress; assay: Persisting Effects Questionnaire at second long-term follow-up; type: in vivo, human; details: second LTFU (4.5 years, n=14)
Protocol: as §2, §3
as §4, with “The first and second LTFUs occurred on average 3.2 years (range 2.3-4.5 years) and 4.5 years (range 3.5-5.5 years) following the participants' psilocybin dosing date, respectively.” left out
Persisting effects of psilocybin were assessed using the Persisting Effects Questionnaire (Griffiths et al., 2006, 2008) assesses self-rated changes in one's attitude, mood, behavior, and experience of spirituality. […]

[3] = tested on: patients with life-threatening cancer; details: 6-month follow up; cited from earlier work
[4] = tested on: patients with cancer-related psychiatric and existential distress; assay: Death Anxiety Scale (DAS), long-term follow-up; type: in vivo, human; details: single 0.3 mg/kg dose with psychotherapy, baseline 8.06
Protocol: as §1, §2
as §3, with “Each therapy dyad underwent six confidential one-to-one sessions to build their alliance and exchange ideas about psychedelic therapy. The trial employed a crossover design at seven weeks following the first drug administration, with an outcome assessment at 6.5 months (26 weeks) following the second drug administration (i.e. after the crossover).” left out
Cancer-related existential distress (demoralization, hopelessness, attitudes and effects associated with disease progression and death) was assessed using the following methods: • The Death Anxiety Scale (DAS) (Templer, 1970)—a 15-item measure that has been used most frequently to assess death anxiety. Items are scored “true” and “false” and then scored as one and zero, respectively. […]

[5] = tested on: patients with life-threatening cancer; details: cited from earlier work

SMILES: CN(C)CCc1c[nH]c2cccc(OP(=O)(O)O)c12 [psilocybin, [3-(2-dimethylaminoethyl)-1H-indol-4-yl] dihydrogen phosphate]
- mean Cohen's d, reductions in hopelessness, demoralization and death anxiety since baseline ([1]; 6.5-month point): 1.39
- range of Cohen's d, hopelessness, demoralization and death anxiety ([1]; 6.5-month point): 0.88-2.00
- mean Cohen's d, reductions in hopelessness, demoralization and death anxiety since baseline ([1]; first LTFU (mean 3.2 years)): 1.39
- range of Cohen's d, hopelessness, demoralization and death anxiety ([1]; first LTFU (mean 3.2 years)): 0.80-1.77
- mean Cohen's d, reductions in hopelessness, demoralization and death anxiety since baseline ([1]; second LTFU (mean 4.5 years)): 1.60
- range of Cohen's d, hopelessness, demoralization and death anxiety ([1]; second LTFU (mean 4.5 years)): 1.00-2.00
- participants appraising the psilocybin session as increasing life satisfaction or wellbeing [2]: 86%
- participants rating the psilocybin experience the single or top-five most personally meaningful experience(s) of their lives [2]: Seventy-one
- participants rating the psilocybin experience the single or top-five most spiritually significant experience(s) of their lives [2]: ninety-six
- volunteers reporting moderate, strong or extreme positive behavioral change attributed to the psilocybin experience [2]: 100%
- participants continuing to show decreases in depressed mood and anxiety [3]: about 80%
- Death anxiety ([4]; mean score at 3.2 years, p < 0.01 vs baseline): 5.68
- Death anxiety ([4]; mean score at 4.5 years, p < 0.05 vs baseline): 5.75
- Death anxiety ([4]; mean score at 6.5-8 months, p < 0.01 vs baseline): 6.09
- patients meeting criteria for clinically significant antidepressant or anxiolytic responses ([5]; final 6.5 month follow up point, 0.3 mg/kg with psychotherapy): 60-80%
- time post dosing up to which rapid and sustained anxiolytic and antidepressant effects were seen ([5]; single dosing session 0.3 mg/kg with psychotherapy): up to 7 weeks
